The values below come from patent US8815882B2, “Pyrazole aminopyrimidine derivatives as LRRK2 modulators” (Genentech, Inc., priority 2010, dated 2014).

In the first assay the target is T1, LRRK2 (Homo sapiens, UniProt Q5S007, G2019S).
T1 construct: purchased Invitrogen PV4882 (lot 567054A)
T1 sequence (Q5S007 whole entry G2019S): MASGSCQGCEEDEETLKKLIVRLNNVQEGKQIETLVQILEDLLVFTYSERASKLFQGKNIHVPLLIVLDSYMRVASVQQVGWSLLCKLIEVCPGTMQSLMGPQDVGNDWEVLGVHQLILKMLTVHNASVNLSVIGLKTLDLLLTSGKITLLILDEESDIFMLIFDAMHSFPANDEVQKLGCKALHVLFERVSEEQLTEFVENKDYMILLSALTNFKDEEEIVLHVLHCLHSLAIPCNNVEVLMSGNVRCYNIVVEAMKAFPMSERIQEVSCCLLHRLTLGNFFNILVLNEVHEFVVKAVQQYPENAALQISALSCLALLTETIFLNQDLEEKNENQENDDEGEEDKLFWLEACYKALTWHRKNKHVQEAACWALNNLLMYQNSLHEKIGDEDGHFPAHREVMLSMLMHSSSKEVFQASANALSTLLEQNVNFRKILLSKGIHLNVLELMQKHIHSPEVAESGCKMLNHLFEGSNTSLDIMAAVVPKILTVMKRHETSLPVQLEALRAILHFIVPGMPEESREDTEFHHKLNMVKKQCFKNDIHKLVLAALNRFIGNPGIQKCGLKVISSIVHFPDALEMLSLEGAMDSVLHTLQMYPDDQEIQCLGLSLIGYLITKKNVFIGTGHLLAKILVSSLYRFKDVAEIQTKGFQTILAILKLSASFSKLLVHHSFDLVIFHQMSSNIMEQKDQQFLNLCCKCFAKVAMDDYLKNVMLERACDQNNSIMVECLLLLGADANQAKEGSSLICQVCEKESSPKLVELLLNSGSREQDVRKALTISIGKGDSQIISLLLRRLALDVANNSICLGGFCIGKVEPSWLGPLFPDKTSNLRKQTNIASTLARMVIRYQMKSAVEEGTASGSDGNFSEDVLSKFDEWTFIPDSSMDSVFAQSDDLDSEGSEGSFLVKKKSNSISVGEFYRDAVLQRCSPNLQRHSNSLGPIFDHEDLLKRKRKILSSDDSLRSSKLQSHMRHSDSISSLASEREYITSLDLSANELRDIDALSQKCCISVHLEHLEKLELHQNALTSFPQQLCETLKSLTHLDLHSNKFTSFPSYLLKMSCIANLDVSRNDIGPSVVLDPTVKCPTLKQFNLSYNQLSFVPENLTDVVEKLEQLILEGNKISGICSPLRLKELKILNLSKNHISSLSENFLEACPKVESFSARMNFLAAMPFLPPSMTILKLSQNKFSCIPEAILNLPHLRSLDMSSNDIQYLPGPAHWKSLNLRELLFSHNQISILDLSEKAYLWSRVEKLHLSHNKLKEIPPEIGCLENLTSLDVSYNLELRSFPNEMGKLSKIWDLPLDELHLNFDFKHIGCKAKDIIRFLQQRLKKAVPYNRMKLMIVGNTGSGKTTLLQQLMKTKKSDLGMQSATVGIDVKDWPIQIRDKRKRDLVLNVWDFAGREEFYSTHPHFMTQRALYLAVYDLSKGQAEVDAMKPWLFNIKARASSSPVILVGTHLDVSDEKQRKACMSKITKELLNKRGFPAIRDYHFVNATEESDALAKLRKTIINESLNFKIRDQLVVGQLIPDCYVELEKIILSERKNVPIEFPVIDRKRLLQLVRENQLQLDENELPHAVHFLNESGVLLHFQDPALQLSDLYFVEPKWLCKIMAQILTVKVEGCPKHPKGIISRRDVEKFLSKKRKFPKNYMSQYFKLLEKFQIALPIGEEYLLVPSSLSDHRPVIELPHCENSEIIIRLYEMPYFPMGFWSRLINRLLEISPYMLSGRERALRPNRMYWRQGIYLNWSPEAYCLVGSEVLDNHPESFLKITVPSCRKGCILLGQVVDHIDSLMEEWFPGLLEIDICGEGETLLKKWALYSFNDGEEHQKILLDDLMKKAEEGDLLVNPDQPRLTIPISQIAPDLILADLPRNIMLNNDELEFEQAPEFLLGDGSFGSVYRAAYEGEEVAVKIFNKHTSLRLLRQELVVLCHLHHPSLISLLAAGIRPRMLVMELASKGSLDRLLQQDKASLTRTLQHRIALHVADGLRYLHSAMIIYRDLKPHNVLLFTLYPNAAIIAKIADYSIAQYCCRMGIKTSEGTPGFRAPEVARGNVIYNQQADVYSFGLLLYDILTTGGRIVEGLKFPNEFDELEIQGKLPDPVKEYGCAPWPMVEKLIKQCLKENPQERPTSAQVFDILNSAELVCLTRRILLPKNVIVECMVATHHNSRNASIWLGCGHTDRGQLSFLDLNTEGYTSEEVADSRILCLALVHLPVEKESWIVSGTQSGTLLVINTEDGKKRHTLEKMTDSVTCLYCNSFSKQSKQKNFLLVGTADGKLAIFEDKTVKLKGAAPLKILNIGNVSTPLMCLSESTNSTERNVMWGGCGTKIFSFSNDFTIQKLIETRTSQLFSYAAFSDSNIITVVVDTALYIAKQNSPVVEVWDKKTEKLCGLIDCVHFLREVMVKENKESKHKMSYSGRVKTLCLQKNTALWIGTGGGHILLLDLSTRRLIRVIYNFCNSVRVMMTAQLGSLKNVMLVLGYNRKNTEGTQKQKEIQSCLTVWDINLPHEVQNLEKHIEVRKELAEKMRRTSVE
Briefly: In Vitro LRRK2 Assay (LabChip 3000, fluorescently-labeled peptide substrate, ATP). In kind it is biochemical. The note with it: Table 9; LRRK2 Ki (micromolar); read-out: LRRK2 Ki (KI). The procedure, abridged: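 LRRK2, fluorescent peptide substrate (diluted to 4 μM before mixing), ATP and compound were incubated 2 h in the dark, then stopped. Phosphorylated and unphosphorylated peptide were separated by capillary electrophoresis and quantified by fluorescence. Ki was fitted with a tight-binding equation including enzyme concentration, S and Km; IC50 or percent inhibition were also reported.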
What is called Ki is the dissociation constant of the complex between target and ligand, obtained from inhibition or displacement. Take `CNc1nc(Nc2cn(C3CCOCC3)nc2C)ncc1C#N` [Example 362, 2-(3-methyl-1-(tetrahydro-2H-pyran-4-yl)-1H-pyrazol-4-ylamino)-4-(methylamino) pyrimidine-5-carbonitrile]: the Ki was 86 nM.

Turning to `Cc1nn(C2COC2)cc1Nc1ncc(C#N)c(NCC(F)(F)F)n1` [Example 382, 2-(3-methyl-1-(oxetan-3-yl)-1H-pyrazol-4-ylamino)-4-(2,2,2-trifluoroethylamino) pyrimidine-5-carbonitrile], the Ki came out at 66 nM. As for `CCn1cc(Nc2ncc(C#N)c(NC)n2)c(C)n1` [Example 353, 2-(1-ethyl-3-methyl-1H-pyrazol-4-ylamino)-4-(methylamino) pyrimidine-5-carbonitrile], the Ki came to 36 nM.

For the compound `CNc1nc(Nc2cn(C3CCN(CC(F)(F)F)CC3)nc2C)ncc1C#N` [Example 355, 2-(3-methyl-1-(1-(2,2,2-trifluoroethyl)piperidin-4-yl)-1H-pyrazol-4-ylamino)-4-(methylamino) pyrimidine-5-carbonitrile], the Ki came to 299 nM.

The assay is the same for the next values; noted with them: Table 10; LRRK2 Ki (micromolar); read-out: LRRK2 Ki (KI).
Consider `CNc1nc(Nc2cnn(C(C)(C)C(=O)NCC(F)(F)F)c2C)ncc1C(F)(F)F` [Example 443, 2-[5-Methyl-4-(4-methylamino-5-trifluoromethyl-pyrimidin-2-ylamino)-pyrazol-1-yl]-N-(2,2,2-trifluoro-ethyl)-isobutyramide], for which the Ki is 66.6 nM. `CNc1nc(Nc2cn([C@@H](C)C#N)nc2C)ncc1C(F)(F)F` [Example 416, (S)-2-(3-methyl-4-(4-(methylamino)-5-(trifluoromethyl)pyrimidin-2-ylamino)-1H-pyrazol-1-yl)propanenitrile]: the Ki is 1.9 nM. As to `CCNc1nc(Nc2cnn(C(C)(C)C(=O)NC)c2C)ncc1C(F)(F)F` [Example 448, 2-[4-(4-Ethylamino-5-trifluoromethyl-pyrimidin-2-ylamino)-5-methyl-pyrazol-1-yl]-N-methyl-isobutyramide], the inhibition constant Ki was found to be 15.3 nM.

The same assay, now with this note: read-out: LRRK2 Ki (KI), Table 7.
With `CNc1nc(Nc2cn(C3COC3)nc2C)ncc1Cl` [Example 27, 5-Chloro-N^4-methyl-N^2-(3-methyl-1-(oxetan-3-yl)-1H-pyrazol-4-yl)pyrimidine-2,4-diamine], the Ki was determined as 8.8 nM. Same read-out and setting: to `Cc1c(Nc2ncc(Cl)c(OC3COC3)n2)cnn1C` [Example 62, 5-chloro-N-(1,5-dimethyl-1H-pyrazol-4-yl)-4-(oxetan-3-yloxy)pyrimidin-2-amine] belongs 39 nM; to `COc1nc(Nc2cn(-c3ccc(S(C)(=O)=O)cc3)nc2C)ncc1Cl` [Example 75, (5-Chloro-4-methoxy-pyrimidin-2-yl)-[1-(4-methanesulfonyl-phenyl)-3-methyl-1H-pyrazol-4-yl]-amine], 2.2 nM; to `COc1nc(Nc2cn(C3CCN(C(=O)C4(C)CC4)CC3)nc2C)ncc1Cl` [Example 66, (4-(4-(5-chloro-4-methoxy-pyrimidin-2-ylamino)-3-methyl-1H-pyrazol-1-yl)piperidin-1-yl)(1-methylcyclo-propyl) methanone], 66 nM. On to `COc1nc(Nc2cc(C3CC3)nn2C)ncc1Cl` [Example 39, 5-Chloro-N-(3-cyclopropyl-1-methyl-1H-pyrazol-5-yl)-4-methoxy-pyrimidin-2-amine], for which the Ki was found to be 59 nM.

Staying with this assay, now noted: read-out: LRRK2 Ki (KI), Table 8.
As to `CCNc1nc(Nc2cnn(C)c2C)ncc1C(F)(F)F` [Example 261, N2-(1,5-Dimethyl-1H-pyrazol-4-yl)-N4-ethyl-5-trifluoromethyl-pyrimidine-2,4-diamine], the Ki amounted to 1.3 nM. Regarding `CNc1nc(Nc2cn(CC(F)(F)F)nc2C)ncc1C(F)(F)F` [Example 254, N4-Methyl-N2-[3-methyl-1-(2,2,2-trifluoro-ethyl)-1H-pyrazol-4-yl]-5-trifluoromethyl-pyrimidine-2,4-diamine], the Ki was 7.7 nM. Turning to `CCNc1nc(Nc2cn(-c3ccc(C#N)cc3)nc2C)ncc1C(F)(F)F` [Example 265, 4-[4-(4-Ethylamino-5-trifluoromethyl-pyrimidin-2-ylamino)-3-methyl-pyrazol-1-yl]-benzonitrile], the Ki was found to be 4.8 nM. As to `CNc1nc(Nc2cnn(-c3cc(F)cc(F)c3)c2C)ncc1Br` [Example 115, 5-bromo-N2-(1-(3,5-difluorophenyl)-5-methyl-1H-pyrazol-4-yl)-N4-methylpyrimidine-2,4-diamine], the Ki turned out to be 31 nM. For the compound `CNc1nc(Nc2cn(CC(F)(F)F)nc2C)ncc1Br` [Example 95, 5-bromo-N4-methyl-N2-(3-methyl-1-(2,2,2-trifluoroethyl)-1H-pyrazol-4-yl)pyrimidine-2,4-diamine], the Ki stood at 1.2 nM. As to `CNc1nc(Nc2cn(-c3ccnc(C)c3)nc2C)ncc1C(F)(F)F` [Example 143, N4-methyl-N2-(3-methyl-1-(2-methylpyridin-4-yl)-1H-pyrazol-4-yl)-5-(trifluoromethyl) pyrimidine-2,4-diamine], the Ki is 6.9 nM.

As to `CCNc1nc(Nc2cn(C3CCN(C(=O)C(C)C)CC3)nc2C)ncc1C(F)(F)F` [Example 268, 1-{4-[4-(4-Ethylamino-5-trifluoromethyl-pyrimidin-2-ylamino)-3-methyl-pyrazol-1-yl]-piperidin-1-yl}-2-methyl-propan-1-one], the inhibition constant (Ki) is 7.7 nM. With `CNc1nc(Nc2cn(C(C)(C)CN3CCOCC3)nc2C)ncc1C(F)(F)F` [Example 299, N2-[1-(1,1-Dimethyl-2-morpholin-4-yl-ethyl)-3-methyl-1H-pyrazol-4-yl]-N4-methyl-5-trifluoromethyl-pyrimidine-2,4-diamine], the Ki is 22.8 nM. On to `CCNc1nc(Nc2cnn(C3CCC(=O)N(C)C3)c2C)ncc1C(F)(F)F` (stereo not drawn) [Example 151, 5-(4-(4-(ethylamino)-5-(trifluoromethyl)pyrimidin-2-ylamino)-5-methyl-1H-pyrazol-1-yl)-1-methylpiperidin-2-one], for which the Ki is 1.1 nM. In the case of `CCNc1nc(Nc2cn(CC(C)(C)O)nc2C)ncc1C(F)(F)F` [Example 297, 1-[4-(4-Ethylamino-5-trifluoromethyl-pyrimidin-2-ylamino)-3-methyl-pyrazol-1-yl]-2-methyl-propan-2-ol], the Ki worked out at 2.1 nM. `CCNc1nc(Nc2cn([C@H]3CCCN(C4COC4)C3)nc2C)ncc1C(F)(F)F` [Example 308, N4-Ethyl-N2-[3-methyl-1-((S)-1-oxetan-3-yl-piperidin-3-yl)-1H-pyrazol-4-yl]-5-trifluoromethyl-pyrimidine-2,4-diamine]: the Ki is 8.5 nM. Regarding `CNc1nc(Nc2cn(Cc3ccncn3)nc2C)ncc1C(F)(F)F` [Example 329, N4-Methyl-N2-(3-methyl-1-pyrimidin-4-ylmethyl-1H-pyrazol-4-yl)-5-trifluoromethyl-pyrimidine-2,4-diamine], the Ki came to 5.2 nM. In the case of `CNc1nc(Nc2cn(C3CCN(C4COC4)CC3F)nc2C)ncc1C(F)(F)F` (stereo not drawn) [Example 199, N2-(1-(3-fluoro-1-(oxetan-3-yl)piperidin-4-yl)-3-methyl-1H-pyrazol-4-yl)-N4-methyl-5-(trifluoromethyl) pyrimidine-2,4-diamine], the Ki amounted to 2.2 nM.

Turning to `CCNc1nc(Nc2cnn(C3CCN(CC4OCCO4)C3)c2C)ncc1C(F)(F)F` (stereo not drawn) [Example 328, N2-[1-(1-[1,3]Dioxolan-2-ylmethyl-pyrrolidin-3-yl)-5-methyl-1H-pyrazol-4-yl]-N4-ethyl-5-trifluoromethyl-pyrimidine-2,4-diamine], the inhibition constant Ki came out at 0.4 nM.

The assay is the same for the next values; noted with them: read-out: LRRK2 Ki given in the example.
For the compound `CNc1nc(Nc2cn(C(C)(C)C#N)nc2C)ncc1C(F)(F)F` [Example 394, 2-methyl-2-(3-methyl-4-(4-(methylamino)-5-(trifluoromethyl)pyrimidin-2-ylamino)-1H-pyrazol-1-yl)propanenitrile], the Ki was 0.5 nM.
